According to PubChem BioAssay (NCI):
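In this assay, cells in 96-well plates receive the compound at five concentrations for 48 hours. Endpoints are linearly interpolated between the surrounding concentrations. TGI is the concentration that stops growth completely.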

What was measured:
Assay in all cases: inhibition of tumour cell growth, NCI panel, 48 h
[1] = system: HL-60(TB) leukemia
[2] = system: SF-268 CNS
[3] = system: K-562 leukemia
[4] = system: LXFL 529 NSCLC
[5] = system: IGROV1 ovarian
[6] = system: M14 melanoma
[7] = system: ACHN renal
[8] = system: SR leukemia
[9] = system: SF-539 CNS
[10] = system: HOP-92 NSCLC
[11] = system: SK-MEL-28 melanoma
[12] = system: HCC-2998 colon
[13] = system: PC-3 prostate
[14] = system: SK-MEL-2 melanoma
[15] = system: MDA-MB-435
[16] = system: NCI/ADR-RES ovarian
[17] = system: CAKI-1 renal
[18] = system: BT-549 breast
[19] = system: MDA-N
[20] = system: MOLT-4 leukemia

Compound	TGI [1] [µM]	TGI [2] [µM]	TGI [3] [µM]	TGI [4] [µM]	TGI [5] [µM]	TGI [6] [µM]	TGI [7] [µM]	TGI [8] [µM]	TGI [9] [µM]	TGI [10] [µM]	TGI [11] [µM]	TGI [12] [µM]	TGI [13] [µM]	TGI [14] [µM]	TGI [15] [µM]	TGI [16] [µM]	TGI [17] [µM]	TGI [18] [µM]	TGI [19] [µM]	TGI [20] [µM]
Nc1nc2c3nc(Nc4ccccc4)sc3nc(=S)n2c2sc(Nc3ccccc3)nc12	> 100	56.5	> 100	29.4	> 100	> 100	> 100	> 100	> 100	52.3	> 100	> 100								
CC(=O)Nc1c(S(=O)(=O)c2ccccc2)c(C)c(C)n1CCN(C)C	> 100	> 100	> 100		> 100	> 100	> 100	> 100	> 100	> 100	> 100	> 100	> 100	> 100	> 100	> 100	> 100	> 100	> 100	> 100
CCCCNC(=O)c1cc2c(cc1Cl)Sc1nccn1S2(=O)=O	> 100	> 100	> 100		> 100	> 100	> 100	> 100	> 100	> 100	> 100	> 100	> 100	> 100	> 100	> 100	34.3	> 100	> 100	> 100
CC(=O)Nc1ccc(NCC(=O)Nn2cnc3ccc(S(=O)(=O)Nc4ccc(NC(C)=O)cc4)cc3c2=O)cc1	> 100	> 100	> 100		> 100	> 100	> 100	> 100	> 100	> 100	> 100	> 100	> 100	> 100	> 100	> 100	> 100	> 100	> 100	> 100
C=C=C(CC1CCCCC1=O)S(=O)(=O)c1ccccc1 (stereo not drawn)	2.5	> 10	> 10		> 10	> 10	> 10	> 6.03	> 10	> 10	> 10	> 10	> 10	> 10	> 10	> 10	> 10	> 10	> 10	3.06
CC[C@H](C)[C@H]1NC(=O)[C@@H](NC(=O)[C@@H](CC(C)C)N(C)C(=O)C2CCCN2C(=O)[C@H](C)O)[C@@H](C)OC(=O)[C@H](Cc2ccc(OC)cc2)N(C)C(=O)[C@@H]2CCCN2C(=O)[C@H](CCCCNC(=O)OCc2ccccc2)NC(=O)[C@H](C)C(=O)[C@H](C(C)C)OC(=O)C[C@@H]1O (stereo partly drawn)	> 25	> 25	> 25		> 25	> 25	> 25	> 25	> 25	> 25	> 25	9.79	16.5	10.1	> 25	> 25	> 25	> 25	> 25	> 25
CC(NC(=O)/C(=C/c1ccccc1)NC(=O)c1ccccc1)C(=O)O (stereo not drawn)	> 100	> 100	> 100		> 100	> 100	> 100	> 100	96.6	> 100	> 100	> 100	> 100	> 100	> 100	> 100	> 100	> 100	> 100	> 100
Cc1ccn2c(=O)cc(CN3CCOCC3)nc2c1	> 100	> 100	> 100		> 100	> 100	> 100	> 100	> 100	> 100	> 100	> 100	> 100	> 100	> 100	> 100	> 100	> 100	> 100	> 100
CN(C)CCCc1cccc2[nH]c3c(c12)CN(C)CC3	> 100	> 100	> 100		> 100	33.9	> 100	74.3	> 100	> 100	> 100	> 100	> 100	> 100	> 100	> 100	> 100	> 100	> 100	> 100
CC(C)OC(=O)c1ccc(CCC2=CC(=O)C=CC2=O)cc1	7.56	28.6	> 37.1		27.5	39	18.8	> 25.3	17.1	13.9	32.9	32.6	26.1	43.1	39.8	22.1	4.26	19.7	22.6	8.05
Cc1cc(C)n(CC(Cn2nc(C)cc2C)=C(/C(Cl)=C(/Cl)Nc2ccc([N+](=O)[O-])cc2)[N+](=O)[O-])n1	4.3	19.8	11.5		8.17	16.6	11.6	8.49	9.27	8.48	29	11.7	12.7	11.8	8.95	> 32.8	5.98	15.7	15.3	4.77
O=C(c1ccccc1)c1c(CC(O)c2ccccn2)n(C(=O)c2ccccc2)c2ccccc12 (stereo not drawn)		> 100	> 100	> 100	> 100	38.1	96.6	50	31.5	57.5	39.6	67.7		30.9			> 100			63.6
O=P12N(CCN1c1ccccc1)CCN2c1ccccc1	> 100	> 100	> 100		> 100	> 100	> 100	> 100	> 100	> 100	> 100	> 100	> 100	> 100	> 100	> 100	> 100	> 100	> 100	> 100
Cc1cn([C@@H]2C[C@@H]2CO)c(=O)[nH]c1=O	> 100	> 100	> 100		> 100	> 100	> 100	> 100	> 100	> 100	> 100	> 100	> 100	> 100	> 100	> 100	> 100	> 100	> 100	> 100
CC(ON(C(c1ccccc1)C(C)C)C(C)(C)C)c1ccccc1 (stereo not drawn)	36.7	52.2	49.8		59.2	49.2	29.3	67.6	43.7	40.3	47.5	33.7	94	34.4	68.9	56.7	55.7	28.7	81.3	35.9
O=c1[nH]c(Cc2ccccc2)nc2c1sc1nc3ccccc3n12	> 100	> 100	> 100		> 100	> 100	> 100	> 100	> 100	> 100	> 100	> 100	> 100	> 100	> 100	> 100	> 100	> 100	> 100	> 100
COC(=O)/C(C#N)=C(\Nc1ccccc1)N1CCOCC1	> 100	> 100	> 100		> 100	> 100	> 100	> 100	> 100	> 100	> 100	> 100	> 100	> 100	> 100	> 100	> 100	> 100	> 100	> 100
COc1cc(OC)c2c(c1)OC(c1ccccc1)CC2=O (stereo not drawn)	> 10	> 10	> 10		> 10	> 10	> 10	> 10	> 10	> 10	> 10	> 10	> 10	> 10	> 10	> 10	> 10	> 10	> 10	> 10
CCOc1cc(C2SCC(=O)N2c2ccc(Oc3ccc(Cl)cc3)c(Cl)c2)ccc1O (stereo not drawn)	47	30.9	> 100		32	56.1	31.2	25.2	32.5	33.7	38.2	35.8	33.4	32.7	42	36.9	32.6	31.5	41.9	64.4
N=C1OC(CN2CCN(c3ccccc3)CC2)CN1C(=S)Nc1ccccc1 (stereo not drawn)	> 100	> 100	> 100		> 100	> 100	> 100	> 100	> 100	> 100	> 100	> 100	> 100	> 100	> 100	> 100	> 100	> 100	> 100	> 100
C=CCN(c1cc(OCc2ccccc2)c2[nH]cc(C)c2c1)S(C)(=O)=O	> 100	> 100	> 100		> 100	> 100	> 100	> 100	> 100	> 100	> 100	> 100	> 100	> 100	> 100	> 100	> 100	> 100	> 100	> 100
COC(=O)/C=C1\C(=O)N(C(C)=O)c2ccc(Br)cc21	5.66	21.1	44.9		20.7	23	23.9	13.5	9.65	29.5	28.6	31.9	20.9	27.7	22	36.9	> 47	22.8	24	10
CCN(CC)c1cccc2c1/C(=N/O)CCCC2	> 100	> 100	> 100	> 100			> 100	> 100			> 100			> 100						> 100
COc1ccc(N=NC(=O)NC(Cc2ccccc2)C(=O)O)cc1 (stereo not drawn)	> 100	> 100	> 100		> 100	> 100	> 100	> 100	> 100	> 100	> 100	> 100	> 100	> 100	> 100	> 100	> 100	> 100	> 100	> 100
C=C1C(=O)O[C@H]2C/C(C)=C/CC[C@@]3(C)O[C@](C)(CC[C@@H]3I)[C@@H](I)C[C@@H]12	20.2	14.4	29.9		6.62	27.1	13.6	8.2	14.4	13	14.1	10.8	22.9	25.8	11.7	5.65	14	12.4	10.9	13.6
